Reference: patent US20240270792A1, “SHORT ANTIMICROBIAL PEPTIDES” (priority 2021, published 2024)
In brackets after ≈: the same amount, converted by molar mass. Square brackets hold non-standard residues; d marks the D form. Ends that are not written are not given here. Peptide text beside a SMILES is read from it. hPhe = N[C@@H](CCc1ccccc1)C(=O)O; αMeF = C[C@](N)(Cc1ccccc1)C(=O)O

Key:
[1] = Cytotoxicity assay: hemolysis of erythrocytes; assay type: cell-based; conditions: 50% hemolysis, human erythrocytes, 1 h at 37° C., pH 7.4; read-out: LC50 Erythrocytes Human
Method: Hemolytic experiments were performed using human erythrocytes obtained from healthy adult donors (Etablissement Français du sang, Paris, France) according to a previously described protocol (Abbassi et al., “Isolation, characterization and molecular cloning of new temporins from the skin of the North African ranid Pelophylax saharica”, Peptides, 2008, 29: 1526-33).
Briefly, synthetic peptides (1-200 μM, final concentrations) were incubated (100 μL, final volume) with erythrocytes (2×10^7 cells) in Dulbecco's phosphate-buffered saline (pH 7.4) for 1 h at 37° C. After centrifugation (12,000×g, 15 s), the absorbance of the supernatant was measured at 450 nm.

[2] = tested on: Enterococcus faecalis ATCC 29212; assay type: cell-based; conditions: Gram-positive, LB, 18-24 hrs at 37° C.
From the text: (§1) The following strains were used: • Gram-negative bacteria: Escherichia coli ATCC 25922, Pseudomonas aeruginosa ATCC 27853, Acinetobacter baumannii ATCC 19606, Klebsiella pneumoniae ATCC 13883, • Gram-positive bacteria: Staphylococcus aureus ATCC 25923, multi-drug resistant Staphylococcus aureus ATCC BAA-44, Streptococcus pyogenes ATCC 19615, Listeria ivanovii Li4pVS2, Enterococcus faecalis ATCC 29212,
(§2) For each strain, a standard inoculum of approximately 10^6 bacteria/mL (exponential growth phase) was prepared. To this end, a colony isolated on LB agar previously inoculated with one of the strains was cultured in 4 ml of LB broth medium, except for S. pyogenes and L. ivanovii which were grown in BHI (Brain Heart Infusion) from a colony isolated on BHI agar. Liquid cultures were then incubated for 2 to 3 hrs at 37° C. with shaking for the bacteria to reach exponential growth phase. After centrifugation, most of the bacterial suspensions were diluted in Mueller-Hinton (MH) broth medium to an OD630nm of 0.01, which corresponds to a concentration of approximately 10^6 cfu/mL (cfu: colony forming unit). A different medium was used for E. faecalis (LB) and for S. pyogenes and L. ivanovii (BHI).
(§3) The minimum inhibitory concentration (MIC) of each peptide was determined by a test of growth inhibition in broth medium. […] The test was performed in a sterile 96-well microtiter plate. A series of increasing concentrations of peptide (2 to 400 μM) was first prepared in sterile MilliQ water. 50 μL of each peptide concentration were mixed into the well with 50 μL of bacterial suspension (10^6 cfu/ml). The microtiter plate was then incubated for 18-24 hrs at 37° C. with shaking. Bacterial growth was determined by measuring OD at 630 nm (turbidity) on a plate reader. Tests were carried out in triplicate for each peptide concentration and at least three independent experiments were performed to determine the MIC value.
(§4) The growth inhibition negative control was obtained by replacing the solution containing the peptide with 50 μL of sterile MilliQ water. The positive control allowing the complete inhibition of bacterial growth was obtained by replacing the solution containing the peptide with 50 μL, of 0.7% formaldehyde.

[3] = tested on: Escherichia coli ATCC 25922; assay type: cell-based; conditions: Gram-negative, 18-24 hrs at 37° C.
From the text: as §1, §2, §3, §4

Staphylococcus aureus = assay type: cell-based; conditions: Gram-positive, 18-24 hrs at 37° C.
From the text: as §1, §2, §3, §4

[4] = tested on: Pseudomonas aeruginosa ATCC 27853; assay type: cell-based; conditions: Gram-negative, 18-24 hrs at 37° C.
From the text: as §1, §2, §3, §4

[5] = tested on: Listeria ivanovii Li4pVS2; assay type: cell-based; conditions: Gram-positive, BHI, 18-24 hrs at 37° C.
From the text: as §1, §2, §3, §4

[6] = tested on: Acinetobacter baumannii ATCC 19606; assay type: cell-based; conditions: Gram-negative, 18-24 hrs at 37° C.
From the text: as §1, §2, §3, §4

[7] = tested on: Streptococcus pyogenes ATCC 19615; assay type: cell-based; conditions: Gram-positive, BHI, 18-24 hrs at 37° C.
From the text: as §1, §2, §3, §4

[8] = tested on: Klebsiella pneumoniae ATCC 13883; experiment: MIC, growth inhibition in broth medium; assay type: cell-based; conditions: Gram-negative, 18-24 hrs at 37° C.
From the text: as §1
as §2, with “A different medium was used for E. faecalis (LB) and for S. pyogenes and L. ivanovii (BHI).” left out
The minimum inhibitory concentration (MIC) of each peptide was determined by a test of growth inhibition in broth medium. […] Bacterial growth was determined by measuring OD at 630 nm (turbidity) on a plate reader. […]

[9] = tested on: Gram-positive and Gram-negative bacteria; conditions: cited from earlier work

## CC[C@H](C)[C@H](NC(=O)[C@H](CCCNC(=N)N)NC(=O)[C@H](CO)NC(=O)[C@H](CC(C)C)NC(=O)[C@H](Cc1ccccc1)NC(=O)[C@H](Cc1ccccc1)NC(=O)[C@@H](N)Cc1ccccc1)C(=O)N[C@@H](Cc1ccccc1)C(N)=O [compound 2]
[1]
  HC50 at 1 h: > 200 µM
[2]
  MIC EF: 100 µM (≈ 108 µg/mL)
[3]
  MIC EC: 50 µM (≈ 53.8 µg/mL)
Staphylococcus aureus
  MIC SA: 25 µM (≈ 26.9 µg/mL)
[4]
  MIC PA: >100 µM
[5]
  MIC LI: 50 µM (≈ 53.8 µg/mL)
[6]
  MIC AB: >100 µM
[7]
  MIC SP: 25 µM (≈ 26.9 µg/mL)

## CC[C@H](C)[C@H](NC(=O)[C@H](CCCNC(=N)N)NC(=O)[C@H](CCCNC(=N)N)NC(=O)[C@H](CC(C)C)NC(=O)[C@H](CCc1ccccc1)NC(=O)[C@H](Cc1ccccc1)NC(=O)[C@@H](N)Cc1ccccc1)C(=O)N[C@@H](Cc1ccccc1)C(N)=O [compound 19]
[1]
  HC50 at 1 h: 170 µM
[3]
  MIC EC: 12.5 µM (≈ 14.5 µg/mL)
Staphylococcus aureus
  MIC SA: 6.25 µM (≈ 7.24 µg/mL)
[4]
  MIC PA: 25 µM (≈ 29 µg/mL)
[6]
  MIC AB: 25 µM (≈ 29 µg/mL)
[7]
  MIC SP: 12.5 µM (≈ 14.5 µg/mL)

## N=C(N)NCCC[C@H](NC(=O)[C@H](CCCNC(=N)N)NC(=O)[C@H](Cc1ccccc1)NC(=O)[C@H](Cc1ccccc1)NC(=O)[C@H](Cc1ccccc1)NC(=O)[C@@H](N)Cc1ccccc1)C(=O)N[C@@H](Cc1ccccc1)C(=O)N[C@@H](Cc1ccccc1)C(N)=O [compound 39]
[1]
  HC50 at 1 h: > 200 µM
[2]
  MIC EF: 50 µM (≈ 60.6 µg/mL)
[3]
  MIC EC: 12.5 µM (≈ 15.2 µg/mL)
Staphylococcus aureus
  MIC SA: 6.25 µM (≈ 7.58 µg/mL)
[4]
  MIC PA: 12.5 µM (≈ 15.2 µg/mL)
[5]
  MIC LI: 12.5 µM (≈ 15.2 µg/mL)
[6]
  MIC AB: 25 µM (≈ 30.3 µg/mL)
[7]
  MIC SP: 3 µM (≈ 3.64 µg/mL)

## N=C(N)NCCC[C@H](NC(=O)[C@H](CCCNC(=N)N)NC(=O)[C@H](Cc1ccccc1)NC(=O)[C@H](CCCNC(=N)N)NC(=O)[C@H](Cc1ccccc1)NC(=O)[C@@H](N)Cc1ccccc1)C(=O)N[C@@H](Cc1ccccc1)C(=O)N[C@@H](Cc1ccccc1)C(N)=O [compound 50]
[1]
  HC50 at 1 h: > 200 µM
[2]
  MIC EF: 100 µM (≈ 122 µg/mL)
Staphylococcus aureus
  MIC SA: 6.25 µM (≈ 7.63 µg/mL)
[4]
  MIC PA: 12.5 µM (≈ 15.3 µg/mL)
[6]
  MIC AB: 100 µM (≈ 122 µg/mL)
[7]
  MIC SP: 6.25 µM (≈ 7.63 µg/mL)

## N=C(N)NCCC[C@H](NC(=O)[C@H](CCCNC(=N)N)NC(=O)[C@H](Cc1ccccc1)NC(=O)[C@H](Cc1ccccc1)NC(=O)[C@H](CCc1ccccc1)NC(=O)[C@@H](N)Cc1ccccc1)C(=O)N[C@@H](Cc1ccccc1)C(=O)N[C@@H](Cc1ccccc1)C(N)=O [compound 51] (H-F[hPhe]FFRRFF-NH2; N-terminus assumed)
[1]
  CC50 at 1 h: 159 µM
[8]
  MIC KP: 25 µM (≈ 30.7 µg/mL)

## N=C(N)NCCC[C@H](NC(=O)[C@H](CCCNC(=N)N)NC(=O)[C@H](Cc1ccccc1)NC(=O)[C@H](CCc1ccccc1)NC(=O)[C@H](Cc1ccccc1)NC(=O)[C@@H](N)Cc1ccccc1)C(=O)N[C@@H](Cc1ccccc1)C(=O)N[C@@H](Cc1ccccc1)C(N)=O [compound 53]
[1]
  HC50 at 1 h: 140 µM
[2]
  MIC EF: 50 µM (≈ 61.3 µg/mL)
[3]
  MIC EC: 12.5 µM (≈ 15.3 µg/mL)
Staphylococcus aureus
  MIC SA: 3 µM (≈ 3.68 µg/mL)
[4]
  MIC PA: 12.5 µM (≈ 15.3 µg/mL)
[6]
  MIC AB: 12.5 µM (≈ 15.3 µg/mL)
[7]
  MIC SP: 6.25 µM (≈ 7.67 µg/mL)

## FF(α-MeF)LSRIFamide (FF[αMeF]LSRIF-NH2; N-terminus assumed; SMILES CC[C@H](C)[C@H](NC(=O)[C@H](CCCNC(=N)N)NC(=O)[C@H](CO)NC(=O)[C@H](CC(C)C)NC(=O)[C@](C)(Cc1ccccc1)NC(=O)[C@H](Cc1ccccc1)NC(=O)[C@@H](N)Cc1ccccc1)C(=O)N[C@@H](Cc1ccccc1)C(N)=O) [SEQ ID No 7, excluded known SHf analog]
[9]
  antimicrobial activity: strong activity against Gram-positive and Gram-negative bacteria, including Klebsiella pneumoniae

## FFFFKRFF-NH2 [compound 42]
[1]
  HC50 at 1 h: > 200 µM
[2]
  MIC EF: >100 µM
Staphylococcus aureus
  MIC SA: 6.25 µM
[4]
  MIC PA: 12.5 µM
[7]
  MIC SP: 12.5 µM

## FFFFRKFF-NH2 [compound 43]
[1]
  HC50 at 1 h: > 200 µM
[2]
  MIC EF: 100 µM
[4]
  MIC PA: 12.5 µM
[6]
  MIC AB: 12.5 µM
[7]
  MIC SP: 12.5 µM

## FFFFSRFF-NH2 [compound 34]
[1]
  HC50 at 1 h: > 200 µM
[2]
  MIC EF: 100 µM
[3]
  MIC EC: >100 µM
Staphylococcus aureus
  MIC SA: 12.5 µM
[4]
  MIC PA: >100 µM
[5]
  MIC LI: 25 µM
[6]
  MIC AB: >100 µM
[7]
  MIC SP: 6.25 µM

## FFFRRRFF-NH2 [compound 38]
[1]
  HC50 at 1 h: > 200 µM
[2]
  MIC EF: >100 µM
[3]
  MIC EC: 25 µM
[4]
  MIC PA: 25 µM
[6]
  MIC AB: 100 µM
[7]
  MIC SP: 12.5 µM

## FFRRFFFF-NH2 [compound 41]
[1]
  HC50 at 1 h: > 200 µM
[2]
  MIC EF: 50 µM
[3]
  MIC EC: 12.5 µM
Staphylococcus aureus
  MIC SA: 6.25 µM
[4]
  MIC PA: 12.5 µM
[6]
  MIC AB: 12.5 µM
[7]
  MIC SP: 6.25 µM

## FRFFRRFF-NH2 [compound 49]
[1]
  HC50 at 1 h: > 200 µM
[2]
  MIC EF: >100 µM
[4]
  MIC PA: 6.25 µM
[7]
  MIC SP: 25 µM

## FRFRFRFF-NH2 [compound 55]
[1]
  HC50 at 1 h: > 200 µM
[2]
  MIC EF: >100 µM
Staphylococcus aureus
  MIC SA: 3 µM
[7]
  MIC SP: 12.5 µM

## FRFRFRFR-NH2 [compound 56]
[1]
  HC50 at 1 h: > 200 µM
[2]
  MIC EF: 30 µM
[3]
  MIC EC: 3 µM
[6]
  MIC AB: 25 µM
[7]
  MIC SP: 6.25 µM

## RFFFRRFF-NH2 [compound 72]
[1]
  HC50 at 1 h: > 200 µM
[2]
  MIC EF: >100 µM
Staphylococcus aureus
  MIC SA: 6.25 µM
[4]
  MIC PA: 12.5 µM
[6]
  MIC AB: 100 µM
[7]
  MIC SP: 25 µM
